Assays:
IL-12 production = IL-12 production in LPS-stimulated RAW264.7 cells (ELISA); assay type: cell-based; conditions: 100 ng/mL LPS, 21 h; for IL-12: compound 0.5 mM
Protocol: The effect of selected compounds on IL-12 production was undertaken in RAW264.7 (macrophage-like) cells. RAW264.7 cells were cultured with 100 ng/mL of LPS in presence or absence of compounds for 21 h in a humidified atmosphere of 95% air-5% carbon dioxide at 37° C. IL-12 concentration in the culture medium was measured using the IL-12 ELISA according to the manufacturer (BD Biosciences) recommendations. […] Compounds have no effect on IL-12 production in the absence of LPS.

CTGF production = test: Inhibition of TGF-induced CTGF production in NHDF (ELISA); assay type: cell-based; conditions: Homo sapiens, 10 ng/mL TGF-β, 48 h
Protocol: The effect of selected compounds on CTGF production was undertaken in normal human dermal fibroblast (NHDF) or human mesangial cells. Cells were cultured in DMEM (0.5% FBS) with or without 10 ng/mL of TGF-β for 48 h in a humidified atmosphere of 95% air-5% carbon dioxide at 37° C. CTGF measurement in the culture medium was measured using the CTGF ELISA according to the manufacturer (Prepotech) recommendations.

HK-2 cells = test: TGF-β induced epithelial to mesenchymal transition in HK-2 cells (real-time PCR of E-cadherin, CTGF, collagen 1); assay type: cell-based, human
Protocol: (§1) FIG. 20 is a bar graph showing the effect of Compound XVII on E-cadherin in normal HK-2 cells and in TGF-β induced EMT cells. Real-time PCR using human E-cadherin TaqMan® Gene Expression Assay normalized to human GAPDH endogenous control; reference is TGF-δ-treated cells 24 h (RQ=1). *means p<0.05, and ** means p<0.01 (t-test).
as §1, with “FIG. 21” for “FIG. 20”, “on CTGF” for “on E-cadherin”, “human CTGH” for “human E-cadherin”, “is TGF-β-treated” for “is TGF-δ-treated”
FIG. 22 is a bar graph showing the effect of Compound XVII on collagen 1 in normal HK-2 cells and in TGF-β induced EMT cells. Real-time PCR using human Collagen 1 TaqMan® Gene Expression Assay normalized to human GAPDH endogenous control; reference is TGF-β-treated cells 24 h (RQ=1). ** means p<0.01 (t-test).
Real-time PCR using human CTGF TaqMan® Gene Expression Assay and Collagen 1 TaqMan® Gene Expression Assay normalized to human GAPDH endogenous control; reference is TGF-β-treated cells 24 h (RQ=1).
FIG. 24 is a bar graph showing the effect of Compound I on CTGF and collagen 1 expression in normal HK-2 cells and in TGF-β induced EMT cells. Real-time PCR using human CTGF TaqMan® Gene Expression Assay and Collagen 1α1 TaqMan® Gene Expression Assay normalized to human GAPDH endogenous control; reference is TGF-β-treated cells 24 h (RQ=1). Compound I is added at 0.5 mM.
Further analysis was undertaken to determine the effect of Compoounds on EMT. The effect of Compound XVII on TGF-β induced EMT was analyzed on human epithelial […] cells (HK-2). To assess the progression of EMT, the pro-epithelial marker E-cadherin and the mesenchymal/pro-fibrotic markers CTGF and collagen 1 were assayed by quantitative real-time PCR. To determine the efficacy of Compound XVII in inhibiting TGF-β-induced EMT, verification of the ability of TGF-β to induce EMT in HK-2 cells.

P815 mastocytoma = test: Primary P815 mastocytoma tumor growth in mice; assay type: in vivo
Description: The syngeneic tumor P815 is a DBA/2 (H-2^d)-derived mastocytoma obtained from ATCC (TIB64). […] Mice were sacrificed around day 23 (depending on the experiment). […] Tumors were palpable, in general, 3-5 days post-inoculation.

P815 liver metastasis = P815 liver metastasis in mice; assay type: in vivo
Protocol: The syngeneic tumor P815 is a DBA/2 (H-2^d)-derived mastocytoma obtained from ATCC (TIB64). P815 cells were grown in DMEM containing 10% fetal bovine serum. At day 0, 50 μL of 5×10^5 viable P815 cells were subcutaneously injected to produce localized tumors in 6- to 8-week old DBA/2 mice. The animals were then serially monitored by manual palpation for evidence of tumor. […] Mice were sacrificed around day 23 (depending on the experiment). Serial tumor volume was obtained by bi-dimensional diameter measurements with calipers, using the formula 0.4 (a×b^2) where “a” was the major tumor diameter and “b” the minor perpendicular diameter. Tumors were palpable, in general, 3-5 days post-inoculation.
It is known that P815 cells have the capacity to metastasize to the liver.

CT-26WT colon tumor = test: Primary colon CT-26WT tumor in mice; assay type: in vivo; conditions: FIG. 12 and 13; for efficacy on primary tumor CT-26 (single agent): sodium decanoate oral 200 mg/kg daily, 5-fluorouracil i.p. 40 mg/kg day 6, 13, 20, Compound XV oral
Protocol: The syngeneic tumor CT-26WT (CT-26) is a colon tumor cell line obtained from ATCC (CRL-2638). CT-26 cells were grown in RPMI containing 10% fetal bovine serum. At day 0, 50 μL of 5×10^6 viable CT-26 cells were subcutaneously injected to produce localized tumors in 6- to 8-week old mice. The animals were then serially monitored by manual palpation for evidence of tumor. […] Mice were sacrificed at day 25. Serial tumor volume was obtained by bi-dimensional diameter measurements with calipers, using the formula 0.4 (a×b^2) where “a” was the major tumor diameter and “b” the minor perpendicular diameter. Tumors were palpable, in general, 3-5 days post-inoculation.

B16F10 melanoma cells = test: Primary B16F10 melanoma tumor in mice; assay type: in vivo; conditions: C57BL/6 mice; sodium decanoate 100 mg/kg oral daily, doxorubicin 5 mg/kg (subtherapeutic dose); FIG. 3
Protocol: Female 6-8 week old C57BL/6 mice were injected subcutaneously on day 0 with 50 μL of 3.75×10^4 viable B16F10 melanoma cells from ATCC (source of cell culture, Dr. I. J. Fidler). On day 14, tumors reached […] and animals were randomized for treatment. […] Mice were sacrificed on day 12.

[1] = TGF-β-stimulated cells, 24 h, normalized to GAPDH, sodium decanoate and Compound I at 0.5 mM
[2] = compound alone, no TGF-β, sodium decanoate and Compound I at 0.5 mM

CCCCOc1ccc(C(CC(=O)[O-])c2cccc(F)c2)cc1.[Na+] (centres unmarked)
melting point: 135 °C

CCCCCCCC(=O)c1ccc2c(c1)CC(C(=O)[O-])C2.[Na+] (racemic) [Compound XIX, Sodium (RS)-5-octanoylindane-2-carboxylate]
IL-12 (pg/mL) (IL-12 production; compound 0.05 mM): 53 (at 0.05 mM) pg/mL
inhibition at 63 µM (CTGF production; 63 μM): 45%

CCCCCCCC(=O)c1cccc2c1CC(C(=O)[O-])C2.[Na+] (racemic) [Compound XLI, Sodium (RS)-4-Octanoylindane-2-Carboxylate]
IL-12 (pg/mL) (IL-12 production; compound 0.1 mM): 25 (at 0.1 mM) pg/mL

CCCCCCCCC(Oc1ccc(C(=O)CCCCCCC)cc1)C(=O)[O-].[Na+] (racemic) [Compound XVII, Sodium (RS)-2-[4-octanoylphenoxy]decanoate]
IL-12 (pg/mL) (IL-12 production; compound 0.05 mM): 209 (at 0.05 mM) pg/mL
TGF-β induced EMT (HK-2 cells; HK-2 cells, sodium decanoate and Compound I at 0.5 mM): significantly inhibited
E-cadherin transcript expression (HK-2 cells; TGF-β induced EMT cells, 24 h, normalized to GAPDH, FIG. 20): upregulation
CTGF transcript expression (HK-2 cells; [1]): downregulation
collagen 1 transcript expression (HK-2 cells; [1]): downregulation
basal expression of CTGF (HK-2 cells; [2]): downregulate
basal expression of collagen 1 (HK-2 cells; [2]): downregulate
inhibition at 7.5 µM (CTGF production; 7.5 μM): 40%
P815 tumor growth (P815 mastocytoma; FIG. 17): significant reduction (p<0.05)
efficacy compared with soluble acetylsalicylic acid (P815 mastocytoma; FIG. 17): better efficacy to the gold standard compound
reduction of the number of mice with liver metastasis (P815 liver metastasis; 50 mg/kg, FIG. 18): approximately 20%

CCCCCCCC(=O)c1ccc(OC(CCCCCC)C(=O)[O-])cc1.[Na+] (racemic) [Compound XXIV, Sodium (RS)-2-[4-Octanoylphenoxy]octanoate]
IL-12 (pg/mL) (IL-12 production; compound 0.02 mM): 12 (at 0.02 mM) pg/mL
melting point: 165 to 170 °C

CCCCCCCCC(Oc1ccc(C(=O)CCC)cc1)C(=O)[O-].[Na+] (racemic) [Compound XXV, Sodium (RS)-2-[4-Butyrylphenoxy]decanoate]
IL-12 (pg/mL) (IL-12 production; compound 0.04 mM): 73 (at 0.04 mM) pg/mL
melting point: 262 to 278 °C

CCCCCCCCC(Oc1ccc(C(=O)CCCCC)cc1)C(=O)[O-].[Na+] (racemic) [Compound XXVI, Sodium (RS)-2-[4-Hexanoylphenoxy]decanoate]
IL-12 (pg/mL) (IL-12 production; compound 0.02 mM): 54 (at 0.02 mM) pg/mL
melting point: 275 to 280 °C

O=c1[nH]cc(F)c(=O)[nH]1 [5-fluorouracil, reference compound]
efficacy on primary tumor CT-26 (single agent) (CT-26WT colon tumor): weak efficacy

CCCCCc1cccc(CCC(=O)[O-])c1.[Na+] [Compound II, Sodium salt of 3-(3-pentylphenyl)propionic acid]
IL-12 (IL-12 production): 351 pg/mL
inhibition at 100 µM (CTGF production; 100 μM): 38%
P815 tumor growth (P815 mastocytoma; oral 200 mg/kg, FIG. 7 and 8): significant reduction (p<0.05)

CCCCc1cccc(CCC(=O)[O-])c1.[Na+] [Compound III]
IL-12 (IL-12 production): 62 pg/mL
inhibition at 500 µM (CTGF production): 46%

CCC/C=C/c1cccc(CC(=O)[O-])c1.[Na+] [Compound IV, Sodium salt of E-(3-pent-1-enyl-phenyl)acetic acid]
IL-12 (IL-12 production): 19 pg/mL
inhibition at 500 µM (CTGF production): 34%

CCCCCc1cc(CC(=O)[O-])ccc1O.[Na+] [Compound IX, Sodium 2-[4-Hydroxy-3-pentylphenyl]acetate]
IL-12 (IL-12 production): 20 pg/mL
melting point: 193 to 197 °C

CCCCCc1cc(O)cc(CC(=O)[O-])c1.[Na+] [Compound VIII, Sodium salt of [3-Hydroxy-5-pentylphenyl]acetic acid]
IL-12 (IL-12 production): 17 pg/mL
inhibition at 200 µM (CTGF production): 47%

CCCC/C=C/c1cccc(CC(=O)[O-])c1.[Na+] [Compound VI]
IL-12 (IL-12 production): 53 pg/mL

CCCCCc1ccc(C(=O)[O-])cc1.[Na+] [Compound XI, Sodium salt of 4-pentylbenzoic acid]
IL-12 (IL-12 production): 78 pg/mL
inhibition at 500 µM (CTGF production): 28%

CCCCCCc1cccc(C(=O)[O-])c1.[Na+] [Compound XIII, Sodium salt of 3-hexylbenzoate]
IL-12 (pg/mL) (IL-12 production; compound 0.125 mM): 18 (at 0.125 mM) pg/mL
inhibition at 125 µM (CTGF production; 125 μM): 29%

O=C([O-])CCc1ccc(NCc2cccc(Oc3ccccc3)c2)cc1.[Na+] [Compound XV, 3-(4-(3-phenoxy-benzylamino)phenyl) propionic acid]
IL-12 (IL-12 production): 37 pg/mL
inhibition at 20 µM (CTGF production; 20 μM): 22%
efficacy on primary tumor CT-26 (single agent) (CT-26WT colon tumor): weak efficacy
P815 tumor growth (P815 mastocytoma; oral 200 mg/kg, FIG. 7 and 8): significant reduction (p<0.05)
reduction of mice with liver metastasis (P815 liver metastasis; oral 200 mg/kg, p<0.05, FIG. 9 and 10): 50%

CCCCCCCC(=O)c1cccc(C(=O)[O-])c1.[Na+] [Compound XVIII, Sodium 3-octanoylbenzoate]
IL-12 (IL-12 production): 1099 pg/mL
inhibition at 200 µM (CTGF production): 49%

COc1cccc2c1C(=O)c1c(O)c3c(c(O)c1C2=O)C[C@@](O)(C(=O)CO)C[C@@H]3O[C@H]1C[C@H](N)[C@H](O)[C@H](C)O1 [doxorubicin, reference compound]
reduction of primary tumor volume compared to the control (B16F10 melanoma cells): around 25%

sodium decanoate and 5-fluorouracil
tumor growth T/C (CT-26WT colon tumor; combination, from day 16 to day 26): approximately 40%

Reference: US9439882B2, “Compounds and compositions for the treatment of cancer” (PROMETIC BIOSCIENCES, INC., priority 2010, dated 2016)
